The target of experiment [1] is T1, Grb7-SH2 domain (Homo sapiens, UniProt Q14451). Also noted: Grb7-SH2 (encoding residues 415–532); made in house; host or cells: E. coli BL21 (DE3) pLysS. The conditions noted are these: previously determined by ITC; cited from earlier work.
For experiment [2], the target named is T1, Grb7-SH2 domain. Nature of the experiment: SPR binding of G7 peptides to GST-Grb7-SH2 domain. As to conditions: for Kd: KD (equilibrium dissociation constant), steady-state equilibrium, single-site model, 50 mM sodium phosphate, 150 mM NaCl, 1 mM DTT, pH 7.4, 25 °C; for Bmax (maximum binding signal): fit to single-site saturation model. (SPR reads the build-up and loss of mass on a sensor chip optically.)

The target of the next experiment is T2, Grb2-SH2 domain (Homo sapiens, UniProt P62993).
T2 construct: Grb2-SH2 (encoding residues 58–160); made in house; host or cells: E. coli BL21 (DE3) pLysS
T2 sequence (P62993 58-160): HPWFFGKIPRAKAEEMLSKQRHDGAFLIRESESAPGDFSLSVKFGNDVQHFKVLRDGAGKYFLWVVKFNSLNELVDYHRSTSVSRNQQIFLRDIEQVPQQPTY
The experiment in a line: SPR binding of G7-B4 to GST-Grb2-SH2 domain. An excerpt: (§1) Previous studies have established the preferential binding of the G7-18NATE peptide to Grb7-SH2 over closely related SH2 domains (Grb10- and Grb14-SH2 domains that share 67% and 65% identity respectively, to the Grb7-SH2 and Grb2-SH2 (~26% identity) domain that shares the pYXN peptide recognition motif)[26]. In order to determine whether the bicyclic peptide G7-B4 retains its specificity for the Grb7-SH2 domain we measured the binding of G7-B4 to Grb2-, Grb10- and Grb14-SH2 domains using SPR. […] Therefore the binding of G7-B4 to Grb2-, Grb10- and Grb14-SH2 is over 130 times weaker than binding to Grb7-SH2 domain, showing that G7-B4 is highly specific for the Grb7-SH2 domain.
(§2) The pGEX2T plasmids with inserts containing Grb7-SH2 (encoding residues 415–532), Grb2-SH2 (encoding residues 58–160), Grb10-SH2 (encoding residues 471–594) and Grb14-SH2 (encoding residues 426–540) were kindly provided by Dr. Roger Daly. Glutathion-S-Transferase (GST)-Grb2-SH2, GST-Grb7-SH2, Grb-10-SH2 and GST-Grb14-SH2 were all expressed and purified as previously described. […] The free Grb7-SH2 used in crystallography was expressed as a GST-fusion protein and was purified by GST affinity, followed by thrombin cleavage to liberate free Grb7-SH2, and then purified by cation exchange chromatography, and size exclusion chromatography as previously described. […]

The target of another experiment is T3, Grb10-SH2 domain (Homo sapiens, UniProt Q13322).
T3 construct: Grb10-SH2 (encoding residues 471–594); made in house; host or cells: E. coli BL21 (DE3) pLysS
T3 sequence (Q13322 471-594): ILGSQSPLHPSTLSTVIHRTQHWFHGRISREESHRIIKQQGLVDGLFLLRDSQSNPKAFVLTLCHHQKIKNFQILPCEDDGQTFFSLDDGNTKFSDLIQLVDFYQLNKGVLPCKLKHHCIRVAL
Nature of the experiment: SPR binding of G7-B4 to Grb10-SH2 domain.
From the text: as §1, §2

The next experiment has as its target T4, Grb14-SH2 domain (Homo sapiens, UniProt Q14449).
T4 construct: Grb14-SH2 (encoding residues 426–540); made in house; host or cells: E. coli BL21 (DE3) pLysS
T4 sequence (Q14449 426-540): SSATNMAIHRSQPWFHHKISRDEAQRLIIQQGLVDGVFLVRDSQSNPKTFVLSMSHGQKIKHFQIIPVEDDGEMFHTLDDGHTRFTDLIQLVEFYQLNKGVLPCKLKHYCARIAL
Nature of the experiment: SPR binding of G7-B4 to GST-Grb14-SH2 domain.
From the text: as §1, §2

Experiment [3] has as its target T5, GST-Grb7-SH2 (UniProt Q14451 415-532).
T5 construct: pGEX2T insert; GST fusion used in SPR, captured by an anti-GST antibody; also called Grb7-SH2 domain
The experiment in a line: SPR; BIAcore T100; GST-SH2 proteins captured on anti-GST antibody on a CM5 chip, GST on the control cells; peptides 0-100 uM injected 60 s at 30 uL/min; 50 mM sodium phosphate, 150 mM NaCl, 1 mM DTT, pH 7.4; 25 C; KD from steady-state curves, single-site model. The conditions noted are these: both partners purified.

Experiment [4] has as its target T5, GST-Grb7-SH2. The description is as above. As to conditions: both partners purified. This is another data set of the same source.
Where [5] appears, read: SPR, no curvature up to 100 μM, saturation well below 50%.

Entries after “also recorded” stand apart in the source; their conditions may differ. Like-named read-outs stand apart in the source and are kept apart here. Positions of bridges follow the written chain, without caps; N, C: chain ends. Non-standard residues stand in square brackets, D forms with d. Residues, ends and D or L forms follow the SMILES beside them. Ser(allyl) = C=CCOC[C@H](N)C(=O)O

T1 sequence (Q14451 415-532): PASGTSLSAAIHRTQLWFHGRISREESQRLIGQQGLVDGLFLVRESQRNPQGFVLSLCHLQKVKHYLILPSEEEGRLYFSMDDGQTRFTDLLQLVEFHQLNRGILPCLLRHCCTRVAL
T5 sequence (Q14451 415-532): as above

Turning to `NC(=O)C[C@@H]1NC(=O)[C@H](CC(=O)O)NC(=O)[C@H](Cc2ccc(O)cc2)NC(=O)CNC(=O)[C@H](CCC(=O)O)NC(=O)[C@H](Cc2ccccc2)NC(=O)[C@@H]2COCC=CCOC[C@H](NC1=O)C(=O)N[C@@H](Cc1ccccc1)C(=O)N1CCC[C@H]1C(=O)N[C@H](C(N)=O)CSCC(=O)N2` [Peptide G7-B1] ({CH2CO}-[Ser(allyl)]FEGYDN[Ser(allyl)]FPC-NH2; staple 1-8; thioether N-11), the Kd (usually the constant that tells how readily two partners part at equilibrium) on Grb7-SH2 domain [1] was 1.9 µM.

On to `NC(=O)C[C@@H]1NC(=O)[C@H](CC(=O)O)NC(=O)[C@H](Cc2ccc(O)cc2)NC(=O)CNC(=O)[C@H](CCC(=O)O)NC(=O)[C@H](Cc2ccccc2)NC(=O)[C@@H]2COCC=CCOC[C@H](NC1=O)C(=O)N1CCC[C@H]1C(=O)N[C@H](C(N)=O)CSCC(=O)N2` [Peptide G7-B3] ({CH2CO}-[Ser(allyl)]FEGYDN[Ser(allyl)]PC-NH2; staple 1-8; thioether N-10), for which, on Grb7-SH2 domain [2] (SPR), the affinity, expressed as Kd, was 4.9 ± 0.03 µM and the “Bmax (maximum binding signal)” value worked out at 53.47 ± 0.02 RU. The “times weaker affinity compared to G7-B1” value at Grb7-SH2 domain [2] (ratio of SPR KD values) is reported as “approximately 3 times”.

As for `C=CCOC[C@@H]1NC(=O)CSC[C@@H](C(N)=O)NC(=O)[C@H](COCC=C)NC(=O)[C@H](CC(N)=O)NC(=O)[C@H](CC(=O)O)NC(=O)[C@H](Cc2ccc(O)cc2)NC(=O)CNC(=O)[C@H](CCC(=O)O)NC(=O)[C@H](Cc2ccccc2)NC1=O` [Peptide G7-B4NS] ({CH2CO}-[Ser(allyl)]FEGYDN[Ser(allyl)]C-NH2; thioether N-9), on Grb7-SH2 domain [2] (SPR), the Kd is 4.9 µM and the “Bmax (maximum binding signal)” value was found to be 34.78 ± 0.01 RU. Besides, the “fold loss in binding affinity compared to G7-B4” value at Grb7-SH2 domain [2] (ratio of SPR KD values) amounted to 6 fold.

Regarding `NC(=O)C[C@@H]1NC(=O)[C@H](CC(=O)O)NC(=O)[C@H](Cc2ccc(O)cc2)NC(=O)CNC(=O)[C@H](CCC(=O)O)NC(=O)[C@H](Cc2ccccc2)NC(=O)[C@@H]2COCC=CCOC[C@H](NC1=O)C(=O)N[C@H](C(N)=O)CSCC(=O)N2` [Peptide G7-B4] ({CH2CO}-[Ser(allyl)]FEGYDN[Ser(allyl)]C-NH2; staple 1-8; thioether N-9), the Kd at Grb2-SH2 domain (setting [5]), on Grb10-SH2 domain (setting [5]) and on Grb14-SH2 domain (setting [5]) was above 100 µM in each case. The “times weaker binding than to Grb7-SH2 domain” value at Grb2-SH2 domain (selectivity Grb7-SH2 over Grb2-SH2), at Grb10-SH2 domain (selectivity Grb7-SH2 over Grb10-SH2) and on Grb14-SH2 domain (selectivity Grb7-SH2 over Grb14-SH2) was “over 130 times” each time.

“CH3-CO-NH2-(XFEGYDNX)-CONH2 where X = O-allylserine (Ac-[Ser(allyl)]FEGYDN[Ser(allyl)]-NH2; staple 1-8; SMILES CC(=O)N[C@H]1COCC=CCOC[C@@H](C(N)=O)NC(=O)[C@H](CC(N)=O)NC(=O)[C@H](CC(=O)O)NC(=O)[C@H](Cc2ccc(O)cc2)NC(=O)CNC(=O)[C@H](CCC(=O)O)NC(=O)[C@H](Cc2ccccc2)NC1=O) [Peptide G7-B1NT]”: the “binding to Grb7-SH2 domain (in words)” value with Grb7-SH2 domain [2] (SPR, peptide up to 100 μM) was “very weak binding; also recorded: dramatically reduced affinity”.

Regarding {CH2CO}-[Ser(allyl)]FEGYDN[Ser(allyl)]C-NH2 (staple 1-8; thioether N-9) [G7-B4 (cyclo-(CH2CO-(XFEGYDNXC)-CONH2 where X = O-allylserine)], the koff – broadly, the first-order rate constant of dissociation – with GST-Grb7-SH2 [3] was around 0.25 s⁻¹. Moreover, the Kd with GST-Grb7-SH2 [4] worked out at 0.83 µM.

B1: G7-B4NS (cyclo-(CH2CO-(XFEGYDNXC)-CONH2 where X = O-allylserine), without ring closing metathesis (peptide)
chain: {CH2CO}-[Ser(allyl)]FEGYDN[Ser(allyl)]C-NH2
modifications: thioether N-9
SMILES: C=CCOC[C@@H]1NC(=O)CSC[C@@H](C(N)=O)NC(=O)[C@H](COCC=C)NC(=O)[C@H](CC(N)=O)NC(=O)[C@H](CC(=O)O)NC(=O)[C@H](Cc2ccc(O)cc2)NC(=O)CNC(=O)[C@H](CCC(=O)O)NC(=O)[C@H](Cc2ccccc2)NC1=O
B1 had a Kd with GST-Grb7-SH2 [4] of 4.93 µM.

B2: G7-B1 (cyclo-(CH2CO-(XFEGYDNXFPC)-CONH2 where X = O-allylserine) (peptide)
chain: {CH2CO}-[Ser(allyl)]FEGYDN[Ser(allyl)]FPC-NH2
modifications: staple 1-8; thioether N-11
SMILES: NC(=O)C[C@@H]1NC(=O)[C@H](CC(=O)O)NC(=O)[C@H](Cc2ccc(O)cc2)NC(=O)CNC(=O)[C@H](CCC(=O)O)NC(=O)[C@H](Cc2ccccc2)NC(=O)[C@@H]2COCC=CCOC[C@H](NC1=O)C(=O)N[C@@H](Cc1ccccc1)C(=O)N1CCC[C@H]1C(=O)N[C@H](C(N)=O)CSCC(=O)N2
The molecule B2 displayed a koff with GST-Grb7-SH2 [3] of around 0.21 s⁻¹. Binding with GST-Grb7-SH2 [4] was put at a Kd of 1.5 µM.

Values taken from paper PMC4891710, “Unexpected involvement of staple leads to redesign of selective bicyclic peptide inhibitor of Grb7” (Scientific Reports, 2016).
